How the values were obtained:
Type in all cases: in vivo
[1] = system: C57BL/KsBom-db/db mice; experiment: Blood glucose profile of db/db mice during daily treatment (antihyperglycemic activity); settings: for Blood glucose % change compared to control, day 1: day 1, vs sham; for Blood glucose % change compared to control, day 2: day 2, vs sham; for Blood glucose % change compared to control, day 3: day 3, vs sham; for Blood glucose % change compared to control, day 4: day 4, vs sham; for Blood glucose % change compared to control, day 5: day 5, vs sham; for Blood glucose % change compared to control, day 6: day 6, vs sham; for Blood glucose % change compared to control, day 7: day 7, vs sham; for Blood glucose % change compared to control, day 8: day 8, vs sham; for Blood glucose % change compared to control, day 9: day 9, vs sham
Protocol: (§1) C57BL/KsBom-db/db mice (12-18 weeks old), weighing around 35+g bred in the animal house of CDRI, Lucknow, were used in the present experiments. The mice were housed in groups of 3 to 5 (same sex) in a room controlled for temperature (23±2.0 ° C.) and 12/12 hours light/dark cycle (lights on at 6.00 am). Body weight of each animal was measured daily from day 1 to day 10 of the experiment. All animals had free access to fresh water and normal pellet diet except on the day of the postprandial protocol (day 6) and during the overnight fast before the OGTT on day 10. The animals always had access to water during experimental periods. Blood glucose was checked every morning up till day 10. On day 10 an oral glucose tolerance test (OGTT) was performed after an overnight fasting. Blood glucose was measured at −30.0 min and test compounds were administered. The blood glucose was again measured at 0 min just post treatment and at this juncture glucose solution was given at a dose of 3 gm/kg to all the groups including the vehicle treated group. The blood glucose levels were checked at 30 min, 60 min, 90 min and 120 min post glucose administration. The data was analyzed for its significance on Prism software.

[2] = system: C57BL/KsBom-db/db mice; experiment: Oral glucose tolerance test (OGTT) on day 10 in db/db mice; settings: 25 mg/kg; for Blood glucose profile, 0 min post glucose load / Blood glucose % change compared to control, 0 min post glucose load: OGTT day 10, 0 min; for Blood glucose % change compared to control, 0 min post glucose load / Blood glucose % change compared to control, 30 min post glucose load / Blood glucose % change compared to control, 60 min post glucose load / Blood glucose % change compared to control, 90 min post glucose load / Blood glucose % change compared to control, 120 min post glucose load / Blood glucose % change compared to control, −30 min post glucose load: vs sham; for Blood glucose profile, 30 min post glucose load / Blood glucose % change compared to control, 30 min post glucose load: OGTT day 10, 30 min; for Blood glucose profile, 60 min post glucose load / Blood glucose % change compared to control, 60 min post glucose load: OGTT day 10, 60 min; for Blood glucose profile, 90 min post glucose load / Blood glucose % change compared to control, 90 min post glucose load: OGTT day 10, 90 min; for Blood glucose profile, 120 min post glucose load / Blood glucose % change compared to control, 120 min post glucose load: OGTT day 10, 120 min; for Blood glucose profile, −30 min post glucose load / Blood glucose % change compared to control, −30 min post glucose load: OGTT day 10, −30 min
Protocol: as §1

[3] = system: C57BL/KsBom-db/db mice; experiment: Serum lipid profile of treated db/db mice (antidyslipidemic activity); settings: 25 mg/kg; for Cholesterol % change compared to control / HDL-Chol % change compared to control / Triglycerides % change compared to control: vs sham
Protocol: as §1

[4] = system: C57BL/KsBom-db/db mice; experiment: as above; settings: db/db mice, test dose 25 mg/kg

## CC(C)(C)NC[C@@H](O)COc1ccc2c(=O)cc(-c3cc(OCc4ccccc4)cc(OCc4ccccc4)c3)oc2c1 [S-002-853 (R), (R)-(−)-7-(3-tert-butylamino-2-hydroxypropoxy)-3′,5′-dibenzyloxyflavone]
[1]; 25 mg/kg
  antihyperglycemic and antidyslipidemic/antihyperlipidemic activity (in words): insignificant antihyperglycemic or antihyperlipidemic effects
  blood glucose profile compared to sham treated (in words): no significant difference in the blood glucose profile between the two groups at any day
  Blood glucose, day 1 post treatment: 12.0 ± 2.52 mM
  Blood glucose % change compared to control, day 1: +1.1%
  Blood glucose, day 2 post treatment: 12.4 ± 2.65 mM
  Blood glucose % change compared to control, day 2: −31.9%
  Blood glucose, day 3 post treatment: 10.3 ± 1.33 mM
  Blood glucose % change compared to control, day 3: −24.1%
  Blood glucose, day 4 post treatment: 13.3 ± 4.61 mM
  Blood glucose % change compared to control, day 4: −18.1%
  Blood glucose, day 5 post treatment: 12.3 ± 4.32 mM
  Blood glucose % change compared to control, day 5: −24.0%
  Blood glucose, day 6 post treatment: 12.1 ± 3.82 mM
  Blood glucose % change compared to control, day 6: −19.8%
  Blood glucose, day 7 post treatment: 14.5 ± 5.49 mM
  Blood glucose % change compared to control, day 7: −31.9%
  Blood glucose, day 8 post treatment: 13.4 ± 4.54 mM
  Blood glucose % change compared to control, day 8: −35.4%
  Blood glucose, day 9 post treatment: 13.5 ± 4.66 mM
  Blood glucose % change compared to control, day 9: −38.3%
[1]; test dose 25 mg/kg, day given in brackets
  Comparative antihyperglycemic activity: Average Fall: 38.3%
[2]
  oral glucose tolerance compared to sham treated (in words): no difference in oral glucose tolerance curve
  Blood glucose profile, 0 min post glucose load: 20.3 ± 4.74 mM
  Blood glucose % change compared to control, 0 min post glucose load: −3.30%
  Blood glucose profile, 30 min post glucose load: 34.3 ± 16.9 mM
  Blood glucose % change compared to control, 30 min post glucose load: +3.70%
  Blood glucose profile, 60 min post glucose load: 25.9 ± 9.75 mM
  Blood glucose % change compared to control, 60 min post glucose load: 0.00%
  Blood glucose profile, 90 min post glucose load: 24.5 ± 9.13 mM
  Blood glucose % change compared to control, 90 min post glucose load: +17.0%
  Blood glucose profile, 120 min post glucose load: 23.0 ± 10.0 mM
  Blood glucose % change compared to control, 120 min post glucose load: +24.9%
  Blood glucose profile, −30 min post glucose load: 13.6 ± 0.46 mM
  Blood glucose % change compared to control, −30 min post glucose load: 17.4%
[3]
  HDL-cholesterol levels compared to sham treated (in words): no significant difference in the HDL-cholesterol levels
  Serum lipid profile: Cholesterol: 144.0 ± 7.37 mg/dL
  Serum lipid profile: HDL-Chol: 58.0 ± 6.24 mg/dL
  Serum lipid profile: Triglycerides: 132.0 ± 11.5 mg/dL
  serum cholesterol, triglycerides (lipid profile) compared to sham treated (in words): no significant lowering in either the case of serum cholesterol or triglycerides
  Cholesterol % change compared to control: −3.72%
  HDL-Chol % change compared to control: +8.06%
  Triglycerides % change compared to control: −9.72%
[4]
  Comparative antihyperlipidemic activity: HDL-C: +8.06^ns
  Comparative antihyperlipidemic activity: T-Chol: −3.72^ns
  Comparative antihyperlipidemic activity: TG: −9.72^ns

## CC(C)NCC(O)COc1ccc2c(=O)cc(-c3cc(O)cc(O)c3)oc2c1 (stereo in doubt) [S-002-857 (R), (R)-(−)-7-(2-Hydroxy-3-isopropylaminopropoxy)-3′,5′-dihydroxy flavone]
[1]; 25 mg/kg
  blood glucose profile compared to sham treated (in words): marginal fall in blood glucose profile
  Blood glucose, day 1 post treatment: 12.5 ± 2.55 mM
  Blood glucose % change compared to control, day 1: 0.0%
  Blood glucose, day 2 post treatment: 12.3 ± 2.67 mM
  Blood glucose % change compared to control, day 2: −1.25%
  Blood glucose, day 3 post treatment: 12.1 ± 2.02 mM
  Blood glucose % change compared to control, day 3: −3.28%
  Blood glucose, day 4 post treatment: 11.5 ± 1.86 mM
  Blood glucose % change compared to control, day 4: −11.5%
  Blood glucose, day 5 post treatment: 11.9 ± 2.74 mM
  Blood glucose % change compared to control, day 5: −13.1%
  Blood glucose, day 6 post treatment: 11.6 ± 2.73 mM
  Blood glucose % change compared to control, day 6: −10.7%
  Blood glucose, day 7 post treatment: 11.7 ± 1.78 mM
  Blood glucose % change compared to control, day 7: −22.0%
  Blood glucose, day 8 post treatment: 11.0 ± 0.35 mM
  Blood glucose % change compared to control, day 8: −13.4%
  Blood glucose, day 9 post treatment: 11.5 ± 1.00 mM
  Blood glucose % change compared to control, day 9: −14.0%
[1]; 25 mg/kg, day 10
  Blood glucose, day 10 post treatment: 11.9 ± 5.21 mM
[1]; 25 mg/kg, day 10, vs sham
  Blood glucose % change compared to control, day 10: −8.30%
[2]
  oral glucose tolerance compared to sham treated (in words): slight improvement in glucose tolerance
  Blood glucose profile, 0 min post glucose load: 16.3 ± 3.91 mM
  Blood glucose % change compared to control, 0 min post glucose load: −7.05%
  Blood glucose profile, 30 min post glucose load: 27.6 ± 1.53 mM
  Blood glucose % change compared to control, 30 min post glucose load: −16.7%
  Blood glucose profile, 60 min post glucose load: 24.4 ± 2.99 mM
  Blood glucose % change compared to control, 60 min post glucose load: −10.0%
  Blood glucose profile, 90 min post glucose load: 20.6 ± 2.08 mM
  Blood glucose % change compared to control, 90 min post glucose load: −7.39%
  Blood glucose profile, 120 min post glucose load: 16.0 ± 1.73 mM
  Blood glucose % change compared to control, 120 min post glucose load: −14.3%
  Blood glucose profile, −30 min post glucose load: 11.8 ± 5.21 mM
  Blood glucose % change compared to control, −30 min post glucose load: −8.31%
[3]
  Serum lipid profile: Cholesterol: 160 ± 6.66 mg/dL
  Serum lipid profile: HDL-Chol: 59.0 ± 2.65 mg/dL
  Serum lipid profile: Triglycerides: 130 ± 3.06 mg/dL
  serum cholesterol, triglycerides (lipid profile) compared to sham treated (in words): no statistically significant difference
  Cholesterol % change compared to control: −6.18%
  HDL-Chol % change compared to control: +5.35%
  Triglycerides % change compared to control: −1.72%

From US20110077294A1, “R-(-) / S-(+)-7-[3-N SUBSTITUTED AMINO-2 HYDROXYPROPOXY] FLAVONES” (priority 2006, published 2011)
